Measurements reported in the NIST ThermoML archive (doi:10.1021/je060339m).

Details: Liquid

CCCOC(C)=O [propyl ethanoate]
Details | mass density [kg/m3]
298.15 K, 100 kPa | 882
298.15 K, 1000 kPa | 882.5
298.15 K, 2000 kPa | 883.4
298.15 K, 3000 kPa | 884.3
298.15 K, 3300 kPa | 884.6
298.15 K, 5000 kPa | 886.4
298.15 K, 10000 kPa | 890.7
298.15 K, 15000 kPa | 894.8
298.15 K, 20000 kPa | 898.7
298.15 K, 25000 kPa | 902.5
298.15 K, 30000 kPa | 906.9
298.15 K, 35000 kPa | 911.7
303.15 K, 100 kPa | 876.2
303.15 K, 1000 kPa | 876.8
303.15 K, 2000 kPa | 877.7
303.15 K, 3000 kPa | 878.8
303.15 K, 3300 kPa | 879
303.15 K, 5000 kPa | 880.8
303.15 K, 10000 kPa | 885.3
303.15 K, 15000 kPa | 889.5
303.15 K, 20000 kPa | 893.5
303.15 K, 25000 kPa | 897.4
303.15 K, 30000 kPa | 902
303.15 K, 35000 kPa | 906.9
308.15 K, 100 kPa | 870.5
308.15 K, 1000 kPa | 871.2
308.15 K, 2000 kPa | 872.2
308.15 K, 3000 kPa | 873.2
308.15 K, 3300 kPa | 873.4
308.15 K, 5000 kPa | 875.3
308.15 K, 10000 kPa | 879.9
308.15 K, 15000 kPa | 884.3
308.15 K, 20000 kPa | 888.4
308.15 K, 25000 kPa | 892.4
308.15 K, 30000 kPa | 897.2
308.15 K, 35000 kPa | 902.3
313.15 K, 100 kPa | 864.9
313.15 K, 1000 kPa | 865.5
313.15 K, 2000 kPa | 866.6
313.15 K, 3000 kPa | 867.6
313.15 K, 3300 kPa | 867.9
313.15 K, 5000 kPa | 869.9
313.15 K, 10000 kPa | 874.7
313.15 K, 15000 kPa | 879.2
313.15 K, 20000 kPa | 883.5
313.15 K, 25000 kPa | 887.6
313.15 K, 30000 kPa | 892.6
313.15 K, 35000 kPa | 897.7
318.15 K, 100 kPa | 859.3
318.15 K, 1000 kPa | 859.8
318.15 K, 2000 kPa | 860.9
318.15 K, 3000 kPa | 862.1
318.15 K, 3300 kPa | 862.4
318.15 K, 5000 kPa | 864.4
318.15 K, 10000 kPa | 869.4
318.15 K, 15000 kPa | 874.1
318.15 K, 20000 kPa | 878.5
318.15 K, 25000 kPa | 882.8
318.15 K, 30000 kPa | 887.9
318.15 K, 35000 kPa | 893.2
323.15 K, 100 kPa | 853.6
323.15 K, 1000 kPa | 854.8
323.15 K, 2000 kPa | 855.8
323.15 K, 3000 kPa | 856.9
323.15 K, 3300 kPa | 857.1
323.15 K, 5000 kPa | 859
323.15 K, 10000 kPa | 864.1
323.15 K, 15000 kPa | 869
323.15 K, 20000 kPa | 873.5
323.15 K, 25000 kPa | 877.9
323.15 K, 30000 kPa | 883.2
323.15 K, 35000 kPa | 888.8
328.15 K, 100 kPa | 848
328.15 K, 1000 kPa | 848.7
328.15 K, 2000 kPa | 849.9
328.15 K, 3000 kPa | 851
328.15 K, 3300 kPa | 851.3
328.15 K, 5000 kPa | 853.7
328.15 K, 10000 kPa | 859
328.15 K, 15000 kPa | 864
328.15 K, 20000 kPa | 868.7
328.15 K, 25000 kPa | 873.3
328.15 K, 30000 kPa | 878.8
328.15 K, 35000 kPa | 884.4
333.15 K, 100 kPa | 842.5
333.15 K, 1000 kPa | 843.6
333.15 K, 2000 kPa | 844.8
333.15 K, 3000 kPa | 845.9
333.15 K, 3300 kPa | 846.2
333.15 K, 5000 kPa | 848.3
333.15 K, 10000 kPa | 853.9
333.15 K, 15000 kPa | 859
333.15 K, 20000 kPa | 863.9
333.15 K, 25000 kPa | 868.6
333.15 K, 30000 kPa | 874.3
333.15 K, 35000 kPa | 880.1
338.15 K, 100 kPa | 836.7
338.15 K, 1000 kPa | 838
338.15 K, 2000 kPa | 839.2
338.15 K, 3000 kPa | 840.5
338.15 K, 3300 kPa | 840.8
338.15 K, 5000 kPa | 842.8
338.15 K, 10000 kPa | 848.6
338.15 K, 15000 kPa | 853.9
338.15 K, 20000 kPa | 859
338.15 K, 25000 kPa | 863.8
338.15 K, 30000 kPa | 869.6
338.15 K, 35000 kPa | 875.5
343.15 K, 100 kPa | 831.2
343.15 K, 1000 kPa | 832.3
343.15 K, 2000 kPa | 833.7
343.15 K, 3000 kPa | 834.9
343.15 K, 3300 kPa | 835.3
343.15 K, 5000 kPa | 837.6
343.15 K, 10000 kPa | 843.6
343.15 K, 15000 kPa | 849.1
343.15 K, 20000 kPa | 854.3
343.15 K, 25000 kPa | 859.2
343.15 K, 30000 kPa | 865
343.15 K, 35000 kPa | 871.2
348.15 K, 100 kPa | 825.6
348.15 K, 1000 kPa | 826.8
348.15 K, 2000 kPa | 828.1
348.15 K, 3000 kPa | 829.5
348.15 K, 3300 kPa | 829.9
348.15 K, 5000 kPa | 832.2
348.15 K, 10000 kPa | 838.3
348.15 K, 15000 kPa | 844.1
348.15 K, 20000 kPa | 849.5
348.15 K, 25000 kPa | 854.5
348.15 K, 30000 kPa | 860.6
348.15 K, 35000 kPa | 866.8
353.15 K, 100 kPa | 820
353.15 K, 1000 kPa | 821.2
353.15 K, 2000 kPa | 822.6
353.15 K, 3000 kPa | 824
353.15 K, 3300 kPa | 824.4
353.15 K, 5000 kPa | 826.9
353.15 K, 10000 kPa | 833.3
353.15 K, 15000 kPa | 838.8
353.15 K, 20000 kPa | 844.8
353.15 K, 25000 kPa | 850
353.15 K, 30000 kPa | 856.4
353.15 K, 35000 kPa | 862.7
358.15 K, 100 kPa | 811.6
358.15 K, 1000 kPa | 812.9
358.15 K, 2000 kPa | 814.4
358.15 K, 3000 kPa | 815.8
358.15 K, 3300 kPa | 816.3
358.15 K, 5000 kPa | 818.6
358.15 K, 10000 kPa | 825.3
358.15 K, 15000 kPa | 831.5
358.15 K, 20000 kPa | 837.2
358.15 K, 25000 kPa | 842.8
363.15 K, 100 kPa | 804.8
363.15 K, 1000 kPa | 806.9
363.15 K, 2000 kPa | 808.4
363.15 K, 3000 kPa | 810
363.15 K, 3300 kPa | 810.4
363.15 K, 5000 kPa | 812.9
363.15 K, 10000 kPa | 819.9
363.15 K, 15000 kPa | 826.2
363.15 K, 20000 kPa | 832.1
363.15 K, 25000 kPa | 837.7
363.15 K, 30000 kPa | 844.4
368.15 K, 1000 kPa | 801
368.15 K, 2000 kPa | 802.7
368.15 K, 3000 kPa | 804.3
368.15 K, 3300 kPa | 804.8
368.15 K, 5000 kPa | 807.4
368.15 K, 10000 kPa | 814.6
368.15 K, 15000 kPa | 821.2
368.15 K, 20000 kPa | 827.3
368.15 K, 25000 kPa | 833.1
373.15 K, 1000 kPa | 795.5
373.15 K, 2000 kPa | 797.2
373.15 K, 3000 kPa | 798.9
373.15 K, 3300 kPa | 799.5
373.15 K, 5000 kPa | 802.3
373.15 K, 10000 kPa | 809.8
373.15 K, 15000 kPa | 816.6
373.15 K, 20000 kPa | 822.9
373.15 K, 25000 kPa | 828.9
378.15 K, 1000 kPa | 789.4
378.15 K, 2000 kPa | 791.3
378.15 K, 3000 kPa | 793
378.15 K, 3300 kPa | 793.6
378.15 K, 5000 kPa | 796.3
378.15 K, 10000 kPa | 803.3
378.15 K, 15000 kPa | 811.3
378.15 K, 20000 kPa | 817.7
378.15 K, 25000 kPa | 824
378.15 K, 30000 kPa | 831.2
383.15 K, 1000 kPa | 783.6
383.15 K, 2000 kPa | 785.5
383.15 K, 3000 kPa | 787.3
383.15 K, 3300 kPa | 788.2
383.15 K, 5000 kPa | 791.2
383.15 K, 10000 kPa | 799.2
383.15 K, 15000 kPa | 806.6
383.15 K, 20000 kPa | 813.2
383.15 K, 25000 kPa | 819.7
388.15 K, 1000 kPa | 777.9
388.15 K, 2000 kPa | 779.8
388.15 K, 3000 kPa | 781.6
388.15 K, 3300 kPa | 782.1
388.15 K, 5000 kPa | 785.4
388.15 K, 10000 kPa | 793.8
388.15 K, 15000 kPa | 801.5
388.15 K, 20000 kPa | 808.5
388.15 K, 25000 kPa | 815.2
388.15 K, 30000 kPa | 823.2
393.15 K, 1000 kPa | 771.8
393.15 K, 2000 kPa | 773.9
393.15 K, 3000 kPa | 775.9
393.15 K, 3300 kPa | 776.4
393.15 K, 5000 kPa | 779.7
393.15 K, 10000 kPa | 788.6
393.15 K, 15000 kPa | 796.5
393.15 K, 20000 kPa | 803.8
393.15 K, 25000 kPa | 810.7
